According to patent US9833497B2, “Human originated EGF domain proteins and use of the same” (CHENGDU SOURCEBIO LIMITED-LIABILITY COMPANY, priority 2013, dated 2017):

Key:
Type in all cases: cell-based
[1] = test system: Moraxella catarrhalis; test: MIC against Gram-negative bacteria: Moraxella catarrhalis; settings: for MIC / MIC (μg/mL) M. catarrhalis: M. catarrhalis
Procedure, shortened: (§1)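 Read-out is absence of bacterial growth, with MIC set at the lowest recombinant protein concentration achieving it. Bacteria, pre-grown in LB to McFarland 0.5 and resuspended, were exposed at 5×10^5 CFU/mL to two-fold diluted human EGF domain proteins in triplicate at 37° C, 175 rpm.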

[2] = test system: Proteus vulgaris; test: MIC against Gram-negative bacteria: Proteus vulgaris; settings: for MIC / MIC (μg/mL) P. vulgaris: P. vulgaris
Procedure, shortened: as §1

[3] = test system: E. coli DH5α; test: Antibacterial activity: MIC and growth curve against E. coli DH5α in 96-well plate; settings: minimal inhibitory concentration against E. coli DH5α; 96-well plate, 5×10^5 CFU/mL, 37° C., judged after 8 h
Procedure, shortened: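 Log-phase DH5α (OD600 about 0.5, 37° C, 185 rpm in LB) was pelleted, resuspended in fresh LB and seeded at 5×10^5 CFU/mL with recombinant protein at 50, 25 and 12.5 μg/mL (two-fold series), in triplicate. Plates were shaken at 175 rpm, 37° C, and OD600 was read every 30 min. MIC was the lowest concentration with no growth.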

[4] = test system: Klebsiella pneumonia; test: MIC against Gram-negative bacteria: Klebsiella pneumonia; settings: for MIC / MIC (μg/mL) K. pneumonia: K. pneumonia
Procedure, shortened: as §1

[5] = test system: Citrobacter diversus; test: MIC against Gram-negative bacteria: Citrobacter diversus; settings: for MIC / MIC (μg/mL) C. diversus: C. diversus
Procedure, shortened: as §1

[6] = test system: Proteus mirabilis; test: MIC against Gram-negative bacteria: Proteus mirabilis; settings: for MIC / MIC (μg/mL) P. mirabilis: P. mirabilis
Procedure, shortened: as §1

[7] = test system: Enterobacter cloacae; test: MIC against Gram-negative bacteria: Enterobacter cloacae; settings: for MIC / MIC (μg/mL) E. cloacae: E. cloacae
Procedure, shortened: as §1

[8] = test system: Pseudomonas aeruginosa; test: MIC against Gram-negative bacteria: Pseudomonas aeruginosa; settings: for MIC / MIC (μg/mL) P. aeruginosa: P. aeruginosa
Procedure, shortened: as §1

[9] = test system: Serratia marcescens; test: MIC against Gram-negative bacteria: Serratia marcescens; settings: for MIC / MIC (μg/mL) S. marcescens: S. marcescens
Procedure, shortened: as §1

[10] = test system: Aeromonas hydrophila; test: MIC against Gram-negative bacteria: Aeromonas hydrophila; settings: for MIC / MIC (μg/mL) A. hydrophila: A. hydrophila
Procedure, shortened: as §1

[11] = test system: E. coli BL21; test: MIC against Gram-negative bacteria: E. coli BL21; settings: for MIC / MIC (μg/mL) E. coli BL21: E. coli BL21
Procedure, shortened: as §1

[12] = 10 h cultivation at 37° C., 5×10^5 CFU/mL, two-fold serial dilution
[13] = 96-well plate, 5×10^5 CFU/mL, 37° C., 10 h
[14] = 10 h cultivation at 37° C., 5×10^5 CFU/mL

Substance: PRT1123 (QLTGCQGHTCPLAATCIPIFESGVHSYVCHCPPGTHGPFCG; listed as Homo sapiens)
- MIC M. catarrhalis [1, 12]: 25 µg/mL
- MIC P. vulgaris [2, 12]: 25 µg/mL
- MIC [3]: 25 µg/mL
- MIC K. pneumonia [4, 12]: 12.5 µg/mL
- MIC C. diversus [5, 12]: 12.5 µg/mL
- MIC P. mirabilis [6, 12]: 50 µg/mL
- MIC E. cloacae [7, 12]: 25 µg/mL
- MIC P. aeruginosa [8, 12]: 25 µg/mL
- MIC S. marcescens [9, 12]: 12.5 µg/mL
- MIC A. hydrophila [10, 12]: 50 µg/mL
- MIC E. coli BL21 [11, 12]: 50 µg/mL

Substance: PRT1185 (REFQCDAYTCSNGGTCYDSGDTFRCACPPGWKGSTCA; listed as Homo sapiens)
- MIC M. catarrhalis [1, 12]: 50 µg/mL
- MIC P. vulgaris [2, 12]: 50 µg/mL
- MIC [3]: 50 µg/mL
- MIC K. pneumonia [4, 12]: 50 µg/mL
- MIC C. diversus [5, 12]: 12.5 µg/mL
- MIC P. mirabilis [6, 12]: 12.5 µg/mL
- MIC E. cloacae [7, 12]: 12.5 µg/mL
- MIC P. aeruginosa [8, 12]: 25 µg/mL
- MIC S. marcescens [9, 12]: 12.5 µg/mL
- MIC A. hydrophila [10, 12]: 50 µg/mL
- MIC E. coli BL21 [11, 12]: 12.5 µg/mL

Substance: PRT655 (DVDECATTDPCVGGHCVNTEGSFNCLCETGFQPSPESGECV; listed as Homo sapiens)
- MIC M. catarrhalis [1, 13]: 50 µg/mL
- MIC P. vulgaris [2, 13]: 12.5 µg/mL
- MIC [3]: 25 µg/mL
- MIC K. pneumonia [4, 13]: 25 µg/mL
- MIC C. diversus [5, 13]: 12.5 µg/mL
- MIC P. mirabilis [6, 13]: 25 µg/mL
- MIC E. cloacae [7, 13]: 50 µg/mL
- MIC P. aeruginosa [8, 13]: 12.5 µg/mL
- MIC S. marcescens [9, 13]: 25 µg/mL
- MIC A. hydrophila [10, 13]: 25 µg/mL
- MIC E. coli BL21 [11, 13]: 50 µg/mL

Substance: PRT439 (DINECQESSPCHQRCFNAIGSFHCGCEPGYQLKGRKCM; listed as Homo sapiens)
- MIC [1, 14]: 50 µg/mL
- MIC [2, 14]: 50 µg/mL
- MIC [3]: 25 µg/mL
- MIC [4, 14]: 50 µg/mL
- MIC [5, 14]: 25 µg/mL
- MIC [6, 14]: 12.5 µg/mL
- MIC [7, 14]: 25 µg/mL
- MIC [8, 14]: 25 µg/mL
- MIC [9, 14]: 12.5 µg/mL
- MIC [10, 14]: 12.5 µg/mL
- MIC [11, 14]: 12.5 µg/mL

Substance: PRT964 (NIDDCASNPCTFGVCRDGINRYDCVCQPGFTGPLCN; listed as Homo sapiens)
- MIC ([1]; 10 h cultivation at 37° C.): 25 µg/mL
- MIC ([2]; 10 h cultivation at 37° C.): 12.5 µg/mL
- MIC [3]: 12.5 µg/mL
- MIC ([4]; 10 h cultivation at 37° C.): 25 µg/mL
- MIC ([5]; 10 h cultivation at 37° C.): 50 µg/mL
- MIC ([6]; 10 h cultivation at 37° C.): 25 µg/mL
- MIC ([7]; 10 h cultivation at 37° C.): 12.5 µg/mL
- MIC ([8]; 10 h cultivation at 37° C.): 50 µg/mL
- MIC ([9]; 10 h cultivation at 37° C.): 50 µg/mL
- MIC ([10]; 10 h cultivation at 37° C.): 25 µg/mL
- MIC ([11]; 10 h cultivation at 37° C.): 25 µg/mL

Substance: PRT262 (CLIHHGGCHIHAECIPTGPQQVSCSCREGYSGDGIRTC; listed as Homo sapiens)
- MIC (μg/mL) M. catarrhalis [1, 14]: 25 µg/mL
- MIC (μg/mL) P. vulgaris [2, 14]: 25 µg/mL
- MIC [3]: 12.5 µg/mL
- MIC (μg/mL) K. pneumonia [4, 14]: 25 µg/mL
- MIC (μg/mL) C. diversus [5, 14]: 50 µg/mL
- MIC (μg/mL) P. mirabilis [6, 14]: 12.5 µg/mL
- MIC (μg/mL) E. cloacae [7, 14]: 12.5 µg/mL
- MIC (μg/mL) P. aeruginosa [8, 14]: 50 µg/mL
- MIC (μg/mL) S. marcescens [9, 14]: 12.5 µg/mL
- MIC (μg/mL) A. hydrophila [10, 14]: 25 µg/mL
- MIC (μg/mL) E. coli BL21 [11, 14]: 25 µg/mL

Substance: PRT188 (HVSDCARNPCAHGGTCHDLENGLMCTCPAGFSGRRCE; listed as Homo sapiens)
- MIC (μg/mL) M. catarrhalis [1, 14]: 25 µg/mL
- MIC (μg/mL) P. vulgaris [2, 14]: 25 µg/mL
- MIC [3]: 12.5 µg/mL
- MIC (μg/mL) K. pneumonia [4, 14]: 12.5 µg/mL
- MIC (μg/mL) C. diversus [5, 14]: 12.5 µg/mL
- MIC (μg/mL) P. mirabilis [6, 14]: 12.5 µg/mL
- MIC (μg/mL) E. cloacae [7, 14]: 50 µg/mL
- MIC (μg/mL) P. aeruginosa [8, 14]: 50 µg/mL
- MIC (μg/mL) S. marcescens [9, 14]: 12.5 µg/mL
- MIC (μg/mL) A. hydrophila [10, 14]: 12.5 µg/mL
- MIC (μg/mL) E. coli BL21 [11, 14]: 12.5 µg/mL
